Measurements reported in US5739131A, “Benzene derivatives and pharmaceutical composition” (Kureha Chemical Industry Co., Ltd., priority 1994, dated 1998).
Like-named read-outs stand apart in the source and are kept apart here.

Key:
mice = experiment: Acute toxicity, single oral dose; type: in vivo
Method: Five-week-old ICR female mice (5 mice per group) were bred for acclimation for a week. Then, the compounds of the present invention were dissolved or dispersed in an aqueous solution of 0.5% methylcellulose, and orally administered to the mice in a single dosage (500 mg/kg).

[1] = biological target: T1, angiotensin II receptor subtype 1 (AT1) (Oryctolagus cuniculus, UniProt P34976); experiment: Binding assay, angiotensin II receptor subtype 1 (AT1); parameters: species or system rabbit (adrenal glands); details: for inhibition at 100 µM: AT1, rabbit adrenal glands
T1 construct: receptor: from adrenal glands in rabbits; from tissue; host or cells: rabbit adrenal glands
T1 sequence (P34976 1-359): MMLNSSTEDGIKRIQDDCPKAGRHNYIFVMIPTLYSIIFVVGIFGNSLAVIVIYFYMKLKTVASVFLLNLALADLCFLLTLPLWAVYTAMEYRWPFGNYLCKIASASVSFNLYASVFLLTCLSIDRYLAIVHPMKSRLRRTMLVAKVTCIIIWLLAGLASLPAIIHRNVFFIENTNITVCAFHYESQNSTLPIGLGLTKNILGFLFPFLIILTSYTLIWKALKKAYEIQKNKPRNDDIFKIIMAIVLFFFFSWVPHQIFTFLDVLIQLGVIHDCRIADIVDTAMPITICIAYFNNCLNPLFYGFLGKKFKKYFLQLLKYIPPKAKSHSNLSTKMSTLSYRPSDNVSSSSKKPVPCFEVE
Method: (§1) In this Example, the affinity to the angiotensin II receptor subtype 1 or subtype 2 was evaluated by a binding assay in accordance with the method described in Biochem. Pharmacol., 33, 4057-4062 (1984).
(§2) Specifically, the measurement of the total binding in the presence of each drug was performed as follows:
(§3) A mixture (final volume=0.25 ml) of a drug in a given concentration (the drug was dissolved in DMSO, and diluted to a double volume with a buffer attached to a drug discovery system to prepare sample for the assay; 0.025 ml), a tracer (0.025 ml), and receptors (0.2 ml) was incubated [in the case of the angiotensin II receptor subtype 1 (AT1), at room temperature for 3 hours, and in the case of the subtype 2 (AT2), at 37° C. for 1 hour]. Then, the reaction mixture was filtered with suction (GF/C filter was used in AT1, and GF/B filter was used in AT2). The filter papers after filtration with suction (the tracer bound to the receptors) were counted by a γ-well counter (ARC-500, Aloka). The non-specific bindings were measured by repeating the above method, except that a large excess amount of a displacer was added. The specific binding of the drug in the given concentration was calculated by subtracting the non-specific binding from the total binding, respectively.
(§4) In AT1 and AT2, the percentages to inhibit the bindings of radioactive ligands (tracer) to receptors by the drugs to be tested (IC50 value of concentration to show 50% inhibition, or binding inhibition % in 100 μM) were measured, using the drugs to be tested and control drugs in the given concentration.

[2] = biological target: T2, angiotensin II receptor subtype 2 (AT2) (Bos taurus, UniProt G5E6F7); experiment: Binding assay, angiotensin II receptor subtype 2 (AT2); parameters: species or system bovine (cerebellar cortex); details: read-out: Binding inhibition % in 100 μm, AT2
T2 construct: receptor: from cerebellar cortex in bovine; from tissue; host or cells: bovine cerebellar cortex
T2 sequence (G5E6F7 1-362): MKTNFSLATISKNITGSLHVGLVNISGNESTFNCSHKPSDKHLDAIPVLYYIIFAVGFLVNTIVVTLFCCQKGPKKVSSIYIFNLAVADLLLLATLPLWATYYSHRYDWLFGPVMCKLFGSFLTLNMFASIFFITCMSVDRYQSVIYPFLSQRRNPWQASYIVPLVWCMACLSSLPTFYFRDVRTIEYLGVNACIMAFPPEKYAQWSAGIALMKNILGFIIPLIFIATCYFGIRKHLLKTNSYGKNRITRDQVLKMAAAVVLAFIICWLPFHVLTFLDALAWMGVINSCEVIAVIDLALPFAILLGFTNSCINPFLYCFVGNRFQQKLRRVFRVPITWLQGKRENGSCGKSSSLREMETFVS
Method: as §1, §2, §3, §4
receptor: from cerebellar cortex in bovine
tracer: ^125 ITyr^4angiotensin II
control drug: angiotensin II (human)
(displacer): angiotensin II (human)

[3] = tested on: kidney disease model rats; experiment: Action to depress blood pressure (tail cuff method); type: in vivo, Sprague-Dawley female rats; details: systolic, average, 20 mg/kg per os, two days from administration; control (water) 203
Method: The compounds of the present invention and the reference substance were forcedly administered per os to kidney disease model rats, and the action to depress blood pressure was observed. The kidney disease model rats were prepared by ligature of branches of renal artery in accordance with the conventional method, that is, the left hilum renalis of Sprague-Dawley female rats was exposed under anesthesia, and one of four secondary branches of renal artery was left unligated, while the remaining three branches were ligated, respectively. After a week, the hilum renalis (artery, vein, and ureter) of the right kidney were further ligated to thereby prepare the rats whose renal function was lowered to approximately 1/8 of the normal function. Each group consisted of eight rats. The drugs to be tested (20 mg/kg) were administered to each administering group, and only water was administered to control group. After two days from the administration, the systolic blood pressure was measured by the tail cuff method using a blood pressure measuring apparatus (UR5000; Ueda).

[4] = tested on: kidney disease model rats; experiment: Renal function indicatory value (action to kidney diseases); type: in vivo, Sprague-Dawley female rats; details: 20 mg/kg/day per os, two weeks; for Creatinine clearance: 24 hours urine, control 0.20; for Creatinine / Urea nitrogen: serum; for Creatinine: control 2.0; for Urea nitrogen: control 100
Method: The kidney disease model rats were prepared as in Example 115. Twenty-five groups (8 rats per group) were sleeked in a manner so that there were no major differences between each group in the serum creatinine value and the urea nitrogen value indicating renal function. The rats in each group were allowed to freely take up feed and water. […] To the rats in the control group, only water was forcedly administered per os every day. After two weeks, 0.2 ml of blood was collected from the carotid artery of the rat under anesthesia, and centrifuged to obtain serum. Using 25 μl of the serum, serum creatinine (Scr) was measured by a creatinine analytical instrument (Beckman). Using 10 μl of the serum, urea nitrogen (BUN) was measured by a BUN analytical instrument (Beckman). Creatinine clearance was evaluated as follows:
After serum creatinine measurement, rats were placed in urinary metabolic cages for 24 hours to collect urine. Urinary creatine concentration (Ucr) was measured by a creatinine analytical instrument, and total volume of urination (Uvol) was also measured. Creatinine clearance (CCr) was calculated by the following formula: [formula]

[5] = tested on: kidney disease model rats; experiment: Action to survival time of kidney diseased animals; type: in vivo, Sprague-Dawley female rats; details: 20 mg/kg/day per os, observation eight weeks (upper limit); control 5.0
Method: The kidney disease model rats were prepared as in Example 115. Twenty-five groups (8 rats per group) were prepared in a manner so that there was no major difference between the groups in the serum creatinine value and the urea nitrogen value indicating renal function. The rats in each group were allowed to freely take up feed and water. […] To the rats in the control group, only water was forcedly administered per os every day. If kidney diseases are aggravated, the rat will die of uremia. Thus, the survival time was observed as comprehensive indication of the improvement effect on the kidney diseases. The observation period was eight weeks. Thus if all rats survived, the average survival time is eight weeks and it is an upper limit.

[6] = 100 μM, AT2, bovine cerebellar cortex, 37° C. 1 hour
[7] = mice, single oral 500 mg/kg, observed for 6 days, 5 per group

Compound	Number of deaths/number of survivals (mice; mouse, in vivo, po, 500 mg/kg)	inhibition at 100 µM [1]	inhibition at 100 µM [2, 6]	Blood pressure [3]	Creatinine clearance [4]	Creatinine [4]	Urea nitrogen [4]	Average survival time [5]	Number of deaths/number of survivals (mice; [7])	IC50 ([1]; tracer 3H angiotensin II, room temperature 3 hours, read-out: IC50 AT1)	IC50 [1]	inhibition at 100 µM [2]
CCCNC(=O)N(Cc1ccc(C(=O)O)cc1)c1cc(C(=O)N2CCOCC2)ccc1N(C)C [Compound No. 225]	0/5	4%	0%	195 mmHg	0.25 mL/min	1.8 mg/dL	73 mg/dL	7.0 weeks	–	–	–	–
CCCCC(=O)N(Cc1ccc(C(=O)O)cc1)c1cccc(C(=O)N2CCOCC2)c1 [Compound No. 90, 3-[N-(4-carboxyphenyl)methyl]valeramidobenzoic acid morpholide]	0/5	30%	0%	194 mmHg	0.38 mL/min	1.5 mg/dL	70 mg/dL	7.6 weeks	–	–	–	–
CCCCCN(Cc1ccc(C(=O)O)cc1)c1cc(C(=O)N2CCOCC2)ccc1N(C)C [Compound No. 252, 4-dimethylamino-3-[N-(4-carboxyphenyl)methyl]-n-amylaminobenzoic acid morpholide]	0/5	34%	0%	200 mmHg	0.28 mL/min	1.7 mg/dL	73 mg/dL	7.0 weeks	–	–	–	–
CCCCC(=O)Nc1ccc(C(=O)N2CCOCC2)cc1NCc1ccc(-c2ccccc2-c2nnn[nH]2)cc1 [Compound No. 585, 3-[[2'-(1H-tetrazol-5-yl)biphenyl-4-yl]methylamino]-4-valeramidobenzoic acid morpholide]	–	–	0%	196 mmHg	0.35 mL/min	1.6 mg/dL	72 mg/dL	7.3 weeks	0/5	1.7 µM	–	–
CCCCC(=O)Nc1ccc(C(=O)N2CCOCC2)cc1NCc1ccc(C(=O)O)cc1 [Compound No. 1, 3-[(4-carboxyphenyl)methylamino]4-valeramidobenzoic acid morpholide]	–	33%	0%	196 mmHg	0.34 mL/min	1.6 mg/dL	75 mg/dL	7.1 weeks	0/5	–	–	–
CCCCC(=O)N(Cc1ccc(C(=O)O)cc1)c1cc(S(=O)(=O)N2CCOCC2)ccc1N(C)C [Compound No. 597, 4-[[3-N-[(4-carboxyphenyl)methyl]valeramido-4-dimethylaminobenzene]sulfonyl]morpholine]	–	0%	0%	–	–	–	–	–	–	–	–	–
CCCCCN(C)c1ccc(S(=O)(=O)N2CCOCC2)cc1NCc1ccc(C(=O)O)cc1 [Compound No. 596, 4-[[4-(N-n-amyl-N-methyl)amino-3-[(4-carboxyphenyl)methyl]aminobenzene]sulfonyl]morpholine]	0/5	22%	0%	198 mmHg	0.34 mL/min	1.6 mg/dL	78 mg/dL	6.0 weeks	–	–	–	–
CCCCCCc1ccc(C(=O)N2CCOCC2)cc1NCc1ccc(C(=O)O)cc1 [Compound No. 75, 3-[(4-carboxyphenyl)methyl]amino-4-hexylbenzoic acid morpholide]	–	15%	0%	–	–	–	–	–	–	–	–	–
CCCCC(=O)Nc1ccc(C(=O)N(CC)CC)cc1NCc1ccc(-c2ccccc2-c2nn[nH]n2)cc1 [Compound No. 586, [3-[[2'-(1H-tetrazol-5-yl)biphenyl-4-yl]methylamino]-4-valeramido]benzoic acid diethylamide]	–	–	–	198 mmHg	0.33 mL/min	1.7 mg/dL	76 mg/dL	6.8 weeks	0/5	–	1.2 µM	0%
CCCCC(=O)N(Cc1ccc(C(=O)O)cc1)c1cc(C(=O)N2CCOCC2)ccc1C(C)C [Compound No. 372, 3-N-[[(4-carboxyphenyl)methyl]valeramido]-4-isopropylbenzoicacid morpholide]	0/5	2%	0%	190 mmHg	0.36 mL/min	1.7 mg/dL	72 mg/dL	7.6 weeks	–	–	–	–
CCCCC(=O)N(Cc1ccc(C(=O)O)cc1)c1cc(C(=O)N2CCOCC2)ccc1N(C)C [Compound No. 184, 3-N-[[(4-carboxyphenyl)methyl]valeramido]-4-dimethylaminobenzoic acid morpholide]	0/5	0%	0%	195 mmHg	0.38 mL/min	1.5 mg/dL	70 mg/dL	7.6 weeks	–	–	–	–
